“Also recorded” adds a separate entry of the source.
How the values were obtained:
[1] = biological target: CTL serine esterase (G4 extract) (Mus musculus, UniProt P11032); assay: biochemical; type: biochemical, murine
[2] = tested on: specific target cell lysis of P815 cells by CTL clone G4; type: cell-based, murine
[3] = tested on: specific target cell lysis of P815 cells by CTL clone G4; conditions: cited from earlier work

Chain of CTL serine esterase (G4 extract) (P11032 29-260): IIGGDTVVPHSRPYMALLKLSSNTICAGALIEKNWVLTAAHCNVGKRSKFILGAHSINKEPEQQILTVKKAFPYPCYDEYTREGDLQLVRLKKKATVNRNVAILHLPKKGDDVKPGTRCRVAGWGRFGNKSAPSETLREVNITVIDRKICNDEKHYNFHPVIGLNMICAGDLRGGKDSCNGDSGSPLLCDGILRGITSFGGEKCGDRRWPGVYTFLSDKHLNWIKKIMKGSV

Compound | Inhibition of CTL esterase activity (in words) [1] | Inhibition of lysis of P815 cells by cloned anti-D^d G4 cells [2] | Toxicity to G4 cells by 51Cr release or reduced recovery of viable (trypan blue-negative) cells (G4 cells) | inhibition at 500 µM ([1]; read-out: Percent Inhibition of esterase activity) [%] | Block of CTL cytotoxicity [3]
O=S(=O)(F)Cc1ccccc1 [PMSF, phenylmethylsulfonyl fluoride] | blocked completely; also recorded: completely inhibitable | clearly inhibits lysis | no additive toxicity | – | –
Cc1ccc(S(=O)(=O)NC(CCCCN)C(=O)CCl)cc1 (stereo not drawn) [TLCK, N^alpha -tosyl lysyl chloromethyl ketone] | not, however, inhibited | – | – | 4.6 | known to block CTL cytotoxicity
